# Results reported in patent US20110104055A1, “SUBSTITUTED N-ARYL BENZAMIDES AND RELATED COMPOUNDS FOR TREATMENT OF AMYLOID DISEASES AND SYNUCLEINOPATHIES” (priority 2002, published 2011).
# What was measured:
# Type in all cases: biochemical
# [1] = molecular target: T1, Aβ 1-42 fibrils (Homo sapiens, UniProt P05067); assay: Thioflavin T fluorometry, disruption of pre-formed Aβ 1-42 fibrils (Example 6); details: 3 days; for % inhibition of Aβ (Thioflavin T fluorometry): 25 μM pre-fibrillized Aβ 1-42, 37° C.
# T1 construct: purchased Bachem Inc
# Procedure: The biological activity of the compounds provided herein as disruptors/inhibitors of Alzheimer's disease β-amyloid protein (Aβ) fibrils, type 2 diabetes IAPP fibrils and Parkinson's disease NAC fibrils was assessed by determining the efficacy of the compounds to cause a disassembly/disruption of pre-formed amyloid fibrils of Alzheimer's disease (i.e. consisting of Aβ 1-42 fibrils), IAPP fibrils and Parkinson's disease NAC fibrils. In one study, Thioflavin T fluorometry was used to determine the effects of the compounds, and of EDTA (as a negative control). In this assay Thioflavin T binds specifically to fibrillar amyloid, and this binding produces a fluorescence enhancement at 485 nm that is directly proportional to the amount of fibrils present. The higher the fluorescence, the greater the amount of fibrils present (Naki et al, Lab. Invest. 65:104-110, 1991; Levine III, Protein Sci. 2:404-410, 1993; Amyloid: Int. J. Exp. Clin. Invest. 2:1-6, 1995). The disruption of Aβ 1-42, even in its monomeric form, was confirmed by a study involving the use of SDS-PAGE and Western blotting methods.
# (§1) In one study, Thioflavin T fluorometry was used to determine the effects of the compounds, and of EDTA (as a negative control). In this assay Thioflavin T binds specifically to fibrillar amyloid, and this binding produces a fluorescence enhancement at 485 nm that is directly proportional to the amount of amyloid fibrils formed. The higher the fluorescence, the greater the amount of amyloid fibrils formed (Naki et al., Lab. Invest. 65:104-110, 1991; Levine III, Protein Sci. 2:404-410, 1993; Amyloid: Int. J. Exp. Clin. Invest. 2:1-6, 1995).
# (§2) Following 3 days of co-incubation, 50 μl of each incubation mixture was transferred into a 96-well microtiter plate containing 150 μl of distilled water and 50 μl of a Thioflavin T solution (i.e. 500 mM Thioflavin T in 250 mM phosphate buffer, pH 6.8). The fluorescence was read at 485 nm (444 nm excitation wavelength) using an ELISA plate fluorometer after subtraction with buffer alone or compound alone, as blank).
# [2] = molecular target: T1, Aβ 1-42 fibrils; assay: Thioflavin T fluorometry, disruption of pre-formed Aβ 1-42 fibrils (Example 11); details: 3 days; for % Inhibition Aβ (result ± S.D.), Thioflavin T fluorometry: 30 μg pre-fibrillized Aβ 1-42, 37° C.
# Description: as §1
# as §2, with “3-days” for “3 days”, “blank.” for “blank).”
# [3] = molecular target: T2, α-synuclein fibrils (Homo sapiens, UniProt P37840); assay: Thioflavin T fluorometry, disruption of pre-formed α-synuclein fibrils (Example 12); details: 3 days; for % Inhibition α-synuclein (result ± S.D.), Thioflavin T fluorometry: 30 μg pre-fibrillized α-synuclein, 37° C.
# T2 construct: purchased rPeptide
# Procedure: In this assay, Thioflavin T binds specifically to α-synuclein fibrils, and this binding produces a fluorescence enhancement at 485 nm that is directly proportional to the amount of α-synuclein fibrils present. The higher the fluorescence, the greater the amount of α-synuclein fibrils present (Naki et al, Lab. Invest. 65:104-110, 1991; Levine III, Protein Sci. 2:404-410, 1993; Amyloid: Int. J. Exp. Clin. Invest. 2:1-6, 1995).
# as §2, with “In this study, 30 μg of pre-fibrillized α-synuclein (rPeptide) was incubated at 37° C. for” for “Following”, “days either alone or in the presence of compounds DC-0051-F1, F2, F3, F4, F5, F6 or EDTA (at α-synuclein:test compound weight ratios of 1:1, 1:0.1, 1:0.01 or 1:0.001). Following 3-days” for “days”, “blank.” for “blank).”
# [4] = molecular target: T2, α-synuclein fibrils; assay: Congo red binding assay, α-synuclein fibrils (Example 12); details: 3-day incubation
# Procedure: In the Congo red binding assay, the ability of a given test compound to alter amyloid (in this case, α-synuclein) binding to Congo red is quantified. In this assay, α-synuclein and test compounds were incubated for 3 days and then vacuum filtered through a 0.2 μm filter. The amount of α-synuclein retained in the filter was then quantitated following staining of the filter with Congo red. After appropriate washing of the filter, any lowering of the Congo red color on the filter in the presence of the test compound (compared to the Congo red staining of the amyloid protein in the absence of the test compound) was indicative of the test compound's ability to diminish/alter the amount of aggregated and congophilic α-synuclein.
# In one study, the ability of α-synuclein fibrils to bind Congo red in the absence or presence of increasing amounts of compounds DC-0051-F1, F2, F3, F4, F5, F6 and EDTA (at α-synuclein:test compound weight ratios of 1:1, 1:0.1, 1:0.01 or 1:0.001) was determined.
# [5] = Aβ:test compound wt/wt ratio 1:0.01
# [6] = Aβ:test compound wt/wt ratio 1:1
# [7] = Thioflavin T fluorometry, all concentrations tested
# [8] = α-synuclein:test compound wt/wt ratio 1:0.001
# [9] = α-synuclein:test compound wt/wt ratio 1:0.01
# [10] = α-synuclein:test compound wt/wt ratio 1:0.1
# [11] = α-synuclein:test compound wt/wt ratio 1:1
# T1 sequence (P05067 672-713): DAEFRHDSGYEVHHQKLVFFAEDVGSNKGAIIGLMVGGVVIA
smiles,measurement,setting,value
O=C(O)CN(CCN(CC(=O)O)CC(=O)O)CC(=O)O [EDTA],% inhibition of Aβ (Thioflavin T fluorometry),[1]; [5],0.2 ± 3.03%
same,% inhibition of Aβ (Thioflavin T fluorometry),[1]; [6],0.0 ± 3.59%
same,"disruption/disassembly of preformed Aβ 1-42 fibrils, in words",[1]; [7],no significant inhibition/disruption
same,"% Inhibition Aβ (result ± S.D.), Thioflavin T fluorometry",[2]; Aβ:test compound wt/wt ratio 1:0.001,0.0 ± 1.70%
same,"% Inhibition Aβ (result ± S.D.), Thioflavin T fluorometry",[2]; [5],2.4 ± 2.86%
same,"% Inhibition Aβ (result ± S.D.), Thioflavin T fluorometry",[2]; Aβ:test compound wt/wt ratio 1:0.1,0.0 ± 6.02%
same,"% Inhibition Aβ (result ± S.D.), Thioflavin T fluorometry",[2]; [6],0.0 ± 3.46%
same,"disruption/disassembly of preformed Aβ 1-42 fibrils, in words",[2]; [7],no significant inhibition
same,"disruption/disassembly of pre-formed α-synuclein fibrils, in words",[3]; [7],no significant inhibition
same,"% Inhibition α-synuclein (result ± S.D.), Thioflavin T fluorometry",[3]; [8],0.0 ± 4.11%
same,"% Inhibition α-synuclein (result ± S.D.), Thioflavin T fluorometry",[3]; [9],0.0 ± 17.06%
same,"% Inhibition α-synuclein (result ± S.D.), Thioflavin T fluorometry",[3]; [10],0.0 ± 6.97%
same,"% Inhibition α-synuclein (result ± S.D.), Thioflavin T fluorometry",[3]; [11],0.0 ± 2.03%
same,"inhibition of α-synuclein fibril binding to Congo red, in words",[4]; all concentrations tested,no significant inhibition
same,"% Inhibition α-synuclein (result ± S.D.), Congo red binding",[4]; [8],3.3 ± 1.85%
same,"% Inhibition α-synuclein (result ± S.D.), Congo red binding",[4]; [9],2.9 ± 5.0%
same,"% Inhibition α-synuclein (result ± S.D.), Congo red binding",[4]; [10],2.2 ± 5.16%
same,"% Inhibition α-synuclein (result ± S.D.), Congo red binding",[4]; [11],0.0 ± 5.50%
